According to patent US4839387A, “Derivative of thiazolidine-4-carboxylic acid, its preparation and pharmaceutical compositions containing it” (Poli Industria Chimica S.P.A., priority 1987, dated 1989):
Non-standard residues stand in square brackets, D forms with d. Residues, ends and D or L forms follow the SMILES beside them. pGlu = O=C1CC[C@@H](C(=O)O)N1; Thz = O=C(O)[C@@H]1CSCN1

Columns and labels:
Male Wistar rats = experiment: Paracetamol intoxication in the rat, test after repeated i.p. administration; assay type: in vivo; conditions: for Death rate %: repeated administration (daily for 8 days and on), 48 hours after paracetamol 5000 mg/kg per os; for % distribution of liver impairment degrees: degree 0 / % distribution of liver impairment degrees: degree 1 / % distribution of liver impairment degrees: degree 2 / % distribution of liver impairment degrees: degree 3: repeated administration; for % distribution of liver impairment degrees: degree 0: degree 0 = normal histologic examination; for % distribution of liver impairment degrees: degree 1: degree I = centrolobular necrosis less than 25% of the lobule; for % distribution of liver impairment degrees: degree 2: degree II = extended centrolobular necrosis; for % distribution of liver impairment degrees: degree 3: degree III = massive necrosis
Excerpt: Male Wistar rats, mean weight of 150±10 g were used, which, after suitable housing, were subjected to the test:
The degree of liver impairment has been evaluated as: degree O: normal histologic examination […]
degree II: extended centrolobular necrosis, with lesions bridging adjacent centrolobular areas degree III: massive necrosis.
In order to evaluate the lesion degree, 6 different sections were taken from each organ.
(b) Test after repeated i.p. administration
The same treatment schedule as in (a) was used.
The animals of groups II-VII were treated daily for 8 days. At the 8th day, contemporaneously to the various considered pharmacological treatments, the animals of the 7 groups (fasting since 12 hours) were administered with paracetamol (5000 mg/kg per os).
After 48 hours from the paracetamol administration, the surviving animals were examined and the liver was subjected to the histopathologic examination.

Swiss male mice = experiment: Effects on the consequences of exposure to ionizing radiation; assay type: in vivo, mouse; conditions: for Death-rate % 10 gg: 10 days after 700 r of x rays; for Death-rate % 15 gg: 15 days after 700 r of x rays
Method: Swiss male mice weighing 30±5 g, divided in 7 groups of 20 animals each, were used according to the above reported schedule.
The pharmacological treatments were carried out for 15 days before the irradiation and prosecuted up to the end of the experiment. The control animals received the vehicle alone.
At the 15th day, all the animals were irradiated (Philip Metalix® apparatus, 180 KV, 15 mA, with Cu filter 0.5 mm +AI mm) with the administration of 700 r of x rays.
All the animals were checked daily, for 15 days after irradiation. The radio-protection degree was calculated as survival % at 10 and 15 days.

male rats = experiment: Delayed-type hypersensitivity induced by dinitrochlorobenzene (DNCB); assay type: in vivo, rat
Method: (§1) For this purpose, male adult rats (5-6 months old) were used as animal model with normal immuno-competent system, and old rats (17-18 months) as a paraphysiological immunodeficiency model.
(§2) The PGTCA treatment has been carried out i.p. at the dose of 1, 10 or 50 mg/kg twice a day for 4 weeks. The used immunological tests were the delayed-type hypersensitivity induced by dinitrochlorobenzene (DNCB) and the T-lymphocyte response to concanavaline A (ConA).
After 4 weeks of PGTCA pre-treatment (or vehicle), 0.02 ml of DNCB (solubilized in acetone at the concentration of 200 mg/ml) was applied to each animal (5 rats per group) on the cutis of the back, on an area of about 1 cm^2. The subsequent inflammatory reaction was evaluated by measuring the diameter of the reddish area by means of a thickness gauge from day 1 to day 7.
During this period the animals were constantly treated.

[1] = test system: T-lymphocyte response to concanavaline A; experiment: Test of blastization with ConA (3H-thymidine incorporation) after in vivo treatment; design: species or system rat; conditions: for 3H-thymidine cpm/well: ConA 2.5 μg/ml; for 3H-thymidine increase %: versus untreated
Method: as §1, §2
After 4 weeks of PGTCA treatment at the doses of 1,10 and 50 mg/kg, the animals were sacrificed and the spleen was removed in sterile conditions. The isolation of lymphocytes was obtained by an isolimph gradient. The lymphocytes were incubated in micro-walls, at the concentration of 1×10^6 cells/ml, in the presence of ConA (2.5 μg/ml), for 48 hours. The mitogen activity was evaluated by incorporation of ^3 H-thymidine for 16 hours.

[2] = test system: T cells forming rosettes with sheep red blood cells; experiment: T-cells forming rosette with sheep red blood cells; assay type: in vivo, mouse; conditions: for No. rosette/10^6 spleen cells Var. %: versus controls
Method: In the mouse, a cytotoxic-kind of hypersensivity reaction, evaluated in the test of T cells forming rosettes with sheep red blood cells, was used (S.D. Wilson Immunology, 1971, 21, 233). […]
CD-I male mice weighing about 25 g are treated with PGTCA for 8 days. After 4 days from the start of the treatment the animals were immunized with 5×10^8 sheep red blood cells in 0.2 ml of PBS i.p. The rosette test was carried out 6 days after the immunization. The mice were killed and the spleen was removed and placed in ice cold Hank solution, triturated, homogenized and gauze filtered.
6×10^7 /ml of spleen cells +100 /μl of red blood cell suspension 3×10^8 /μul were mixed in 0.8 ml of Hank and stirred for 1 min.
The samples were incubated for 24 h at 4° C. without stirring and then, after stirring, the number of rosette forming cells/ml was determined by the Burker apparatus.

old rat = experiment: Neurocerebral performances in the old rat; assay type: in vivo; conditions: 10 mg/kg and even more at 50 mg/kg
male rat = experiment: Sexual behaviour of the male rat; assay type: in vivo; conditions: latencies and frequences of sexual acts
[3] = PGTCA 4.1 microm/kg ip from 15 days before irradiation
[4] = PGTCA 41 microm/kg ip from 15 days before irradiation
[5] = PGTCA 205 microm/kg ip from 15 days before irradiation
[6] = Mice not sensitized with red blood cells, 100 mg/kg b.i.d. i.p. for 8 days

O=C1CC[C@@H](C(=O)N2CSC[C@H]2C(=O)O)N1 [PGTCA, 3-L-pyroglutamyl-Lthiazolidine-4-carboxylic acid] ([pGlu]-[Thz]-OH)
Death rate % (Male Wistar rats; PGTCA 4.1 microm/kg ip): 85% | Death rate % (Male Wistar rats; PGTCA 41 microm/kg ip): 70% | Death rate % (Male Wistar rats; PGTCA 205 microm/kg ip): 50% | % distribution of liver impairment degrees: degree 0 (Male Wistar rats; PGTCA 4.1 microm/kg ip): 0% | % distribution of liver impairment degrees: degree 1 (Male Wistar rats; PGTCA 4.1 microm/kg ip): 0% | % distribution of liver impairment degrees: degree 2 (Male Wistar rats; PGTCA 4.1 microm/kg ip): 10% | % distribution of liver impairment degrees: degree 3 (Male Wistar rats; PGTCA 4.1 microm/kg ip): 90% | % distribution of liver impairment degrees: degree 0 (Male Wistar rats; PGTCA 41 microm/kg ip): 0% | % distribution of liver impairment degrees: degree 1 (Male Wistar rats; PGTCA 41 microm/kg ip): 0% | % distribution of liver impairment degrees: degree 2 (Male Wistar rats; PGTCA 41 microm/kg ip): 35% | % distribution of liver impairment degrees: degree 3 (Male Wistar rats; PGTCA 41 microm/kg ip): 65% | % distribution of liver impairment degrees: degree 0 (Male Wistar rats; PGTCA 205 microm/kg ip): 5% | % distribution of liver impairment degrees: degree 1 (Male Wistar rats; PGTCA 205 microm/kg ip): 15% | % distribution of liver impairment degrees: degree 2 (Male Wistar rats; PGTCA 205 microm/kg ip): 25% | % distribution of liver impairment degrees: degree 3 (Male Wistar rats; PGTCA 205 microm/kg ip): 55% | Death-rate % 10 gg (Swiss male mice; [3]): 20% | Death-rate % 10 gg (Swiss male mice; [4]): 15% | Death-rate % 10 gg (Swiss male mice; [5]): 10% | Death-rate % 15 gg (Swiss male mice; [3]): 45% | Death-rate % 15 gg (Swiss male mice; [4]): 20% | Death-rate % 15 gg (Swiss male mice; [5]): 15% | radioprotective activity (Swiss male mice; at the highest and at the intermediate dose): remarkable radioprotective activity | response to DNCB, evaluated as inflammation area (male rats; old animals, already at the dose of 10 mg/kg): maximum enhancing increase | response to DNCB, evaluated as inflammation area (male rats; young animals, only at the dose of 50 mg/kg): significant increase | 3H-thymidine cpm/well ([1]; Adult rats (5-6 months), 1 mg/kg i.p. twice a day for 4 weeks): 31806 ± 970 cpm/well | 3H-thymidine increase % ([1]; Adult rats (5-6 months), 1 mg/kg): -2.1% | 3H-thymidine cpm/well ([1]; Adult rats (5-6 months), 10 mg/kg i.p. twice a day for 4 weeks): 34165 ± 540 cpm/well | 3H-thymidine increase % ([1]; Adult rats (5-6 months), 10 mg/kg): +5.1% | 3H-thymidine cpm/well ([1]; Adult rats (5-6 months), 50 mg/kg i.p. twice a day for 4 weeks): 35785 ± 240 cpm/well | 3H-thymidine increase % ([1]; Adult rats (5-6 months), 50 mg/kg): +10.1% | 3H-thymidine cpm/well ([1]; Old rats (17-18 months), 1 mg/kg i.p. twice a day for 4 weeks): 23553 ± 923 cpm/well | 3H-thymidine increase % ([1]; Old rats (17-18 months), 1 mg/kg): +1.6% | 3H-thymidine cpm/well ([1]; Old rats (17-18 months), 10 mg/kg i.p. twice a day for 4 weeks): 26012 ± 316 cpm/well | 3H-thymidine increase % ([1]; Old rats (17-18 months), 10 mg/kg): +12.3% | 3H-thymidine cpm/well ([1]; Old rats (17-18 months), 50 mg/kg i.p. twice a day for 4 weeks): 27540 ± 439 cpm/well | 3H-thymidine increase % ([1]; Old rats (17-18 months), 50 mg/kg): +18.9% | No. rosette/10^6 spleen cells m ± E.S. [2, 6]: 790 ± 170 rosette/10^6 spleen cells | No. rosette/10^6 spleen cells Var. % [2, 6]: -12% | No. rosette/10^6 spleen cells Var. % ([2]; Mice sensitized with red blood cells, 100 mg/kg b.i.d. i.p. for 8 days): +41% | rosette number in comparison with the control ([2]; not sensitized animals): no significant change | rosette number in comparison with the control ([2]; sensitized animals): significant increase | improving the neurocerebral performances (old rat): active | sexual behaviour (male rat): favourable influence
